Values quoted from earlier work, collected in patent publication US20090023692A1, “COMPOSITIONS FOR INHIBITING AND PREVENTING VASCULAR OCCLUSION CONTAINING NUTRITIONAL SUPPLEMENTS” (NeursoSci, Inc., priority 2005, published 2009).

Settings: daily administration of low doses (approximately 80-100 mg), patients at risk for cardiovascular events

For `CC(=O)Oc1ccccc1C(=O)O` [aspirin, acetylsalicylic acid], the “reduction of second heart attacks, strokes, and cardiovascular deaths” value is listed as “at least 25%”.
